# In US11596716B2, “Compounds and matrices for use in bone growth and repair” (Human BioMolecular Research Institute, priority 2013, dated 2023):
# How the values were obtained:
# C2C12 cells [1] = test: Alkaline Phosphatase (ALP) functional activity assay in C2C12 cells; type: cell-based, Mouse; conditions: for activation at 0.5 µM: Mus musculus, C2C12, 144 h, compounds of Formula VI, normalized to DMSO treatment
# Method: Alkaline Phosphatase (ALP) Functional Activity Assay: C2C12 cells were plated into 12-well plates with 7,000 cells/well in 1 mL growth media. […] 1, 2, 3, or 4 in 0.1% DMSO was added (500 nM). Half the media was exchanged with fresh media containing compound every 48 hrs. After 6 days, media was removed, ALP Lysis Buffer (10 mM Tris-HCl pH 8.0, 1 mM MgCl2, and 1% Triton X100) added, and cell lysate obtained (10 min incubation at RT) by centrifugation (5 min at 3500× g at 4° C.). Para-nitrophenol phosphate (pNPP) (2 mg/mL) was incubated with 50 μl cell lysate (10 mins, 37° C.). After addition of […] 0.02 N NaOH, absorbance OD405 was measured. Protein concentration was determined by Bradford protein assay. Results of ALP activity were plotted as nM pNP hydrolyzed/mg total protein. After normalizing control samples (i.e., DMSO-treated samples) to one-fold, the fold-changes were plotted to indicate the relative ALP activity. […] This protocol was applied to hMSC and E15 cells as well.
# C2C12 cells [2] = test: Cell proliferation/viability assay (Resazurin / Alamar blue) in C2C12 cells; type: cell-based, Mouse
# Method: Cell proliferation/viability assay: Cells were seeded at a density of 500 cells/well on 96-well plates. After 24 hr, compound (i.e., 5 nM, 50 nM, 500 nM or 5000 nM) was added to the cells in the presence or absence of calcium phosphate matrix (5 mg/mL). […] At the specified time, 1 μg of Resazurin was added to each well of the 96-well plate and the fluorescence signal at 590 nm (excitation at 530 nm) was immediately measured. Readings were designated as time zero values (value0h). Cells were incubated for 1 hr before a second fluorescence measurement at 590 nm was made (value1h). The difference in 1 hr and 0 h (value1h−value0h) readings were used to plot the fold-change in cell proliferation/viability after normalizing to control conditions (i.e., DMSO vehicle treatment). Compounds of Formula II or IV that activate Wnt signaling and compounds of Formula VI that activate TLR signaling pathways were analyzed. This protocol was applied to hMSC and E15 cells as well. Cell proliferation was not robust in keeping with a narrow number of cells highly committed to the bone cell lineage.
# hMSCs [3] = test: qPCR of target gene mRNA expression in hMSCs; type: cell-based, human; conditions: hMSCs, comparison with compound 3 and calcium phosphate ceramic
# Method: qPCR detection of osteogenic markers: Cells were cultured with compound in the presence or absence of matrix as described above, but using 96-well plate format. Total RNA was extracted from cells (as above) using Trizol. cDNA was made using 750 ng of total RNA with Bio-Rad iscript kit and was diluted 20-fold before being used for qPCR. qPCR was conducted under the following conditions: 95° C., 2 min; 95° C., 10 s and 60° C., 45 s for 40 cycles; 60° C. for 71 cycles for melt curve. qPCR results were analyzed by the ΔΔCt method. 18s rRNA was used as an internal standard. This protocol was applied to hMSC and E15 cells.
# Runx2 and BMP-2 are osteogenic markers; Axin2, Wnt3a, and Sox 9 are Wnt-inducible gene markers.
# The assay for mRNA expression followed the same procedure with hMSCs as described for C2C12 cells (Example 7).
# Solubility in water = type: physicochemical
# Wnt transcription = test: WNT transcriptional reporter assay (Super(8×)TOPflash luciferase, HEK293T cells); type: cell-based; conditions: Wnt3A-expressing vector, 20 hrs, relative to cells treated with DMSO alone, read-out: Wnt transcription potency
# Source text: Commercially available Super(8×)TOPflash vector driven by a (7×) TCF-firefly luciferase response element was transiently transfected into HEK293T cells, together with a TK-driven Renilla luciferase plasmid as an internal control to normalize the luminescence signal and a Wnt3A-expressing vector as the source of pathway activation. HEK293T cells were transfected with plasmids in DMEM plus 10% fetal bovine serum (FBS) for 8 hr, replated to 96-well plates in DMEM plus 10% FBS followed by treatment with compounds (1.6 nM to 5 M) (DMSO final concentration is 0.5%) for 20 hrs. Firefly and Renilla luciferase activities were measured and normalized by the Renilla luciferase values.
# C2C12 cells [4] = test: qPCR detection of osteogenic markers in C2C12 cells; type: cell-based, Mouse; conditions: 500 nM, 6 days
# C2C12 cells [5] = test: Alizarin Red S staining (calcium deposition) in C2C12 cells; type: cell-based, Mouse; conditions: 500 nM, 25 days of treatment
# Method: Alizarin Red S Staining: C2C12 cells were cultured as described for the ALP functional activity assay (above, except compound was added every 48 hr for 25 days), but using 48-well plate format. On day 25, medium was removed and the cells were washed with PBS (calcium and magnesium free). Cells were fixed with 70% ethanol at room temperature for 30 mins, rinsed with water 3×. Following removal of water, 200 μl of Alizarin Red S (2%, pH 4.1) was added to each well and incubated for at least 20 mins. The dye was removed and the cells were washed with excess H2O four times with gentle mixing. The cells were covered with water to prevent evaporation and analyzed by plate reader or microscope. This protocol was applied to hMSC and E15 cells.
# C2C12 cells [6] = test: qPCR of apoptosis biomarkers (Bax and Fos) in C2C12 cells; type: cell-based, Mouse; conditions: 500 nM or 5 μM every 48 hrs, up to 25 days
# hMSCs [7] = test: Alkaline Phosphatase functional activity assay in hMSCs; type: cell-based, human; parameters: key to Alkaline Phosphatase activity, −matrix, 8 days / Alkaline Phosphatase activity, +matrix, 8 days / Alkaline Phosphatase activity, −matrix, 25 days / Alkaline Phosphatase activity, +matrix, 25 days: fold-change vs DMSO-treated control (control = 1); conditions: 500 nM
# hMSCs [8] = test: Alamar blue cell viability assay in hMSCs; type: cell-based, human; conditions: 500 nM, 25-day-old hMSCs
# Method: Cell proliferation/viability assay: Cells were seeded at a density of 500 cells/well on 96-well plates. After 24 hr, compound (i.e., 5 nM, 50 nM, 500 nM or 5000 nM) was added to the cells in the presence or absence of calcium phosphate matrix (5 mg/mL). One-half of the media was replaced with fresh media containing compound every 48 hours for 8 days. At the specified time, 1 μg of Resazurin was added to each well of the 96-well plate and the fluorescence signal at 590 nm (excitation at 530 nm) was immediately measured. Readings were designated as time zero values (value0h). Cells were incubated for 1 hr before a second fluorescence measurement at 590 nm was made (value1h). The difference in 1 hr and 0 h (value1h−value0h) readings were used to plot the fold-change in cell proliferation/viability after normalizing to control conditions (i.e., DMSO vehicle treatment). Compounds of Formula II or IV that activate Wnt signaling and compounds of Formula VI that activate TLR signaling pathways were analyzed. This protocol was applied to hMSC and E15 cells as well. Cell proliferation was not robust in keeping with a narrow number of cells highly committed to the bone cell lineage.
# The assay for cell proliferation followed the same procedure with hMSCs as described for C2C12 cells (Example 7).
# hMSCs [9] = test: qPCR of apoptosis biomarkers (Bax and Fos) in hMSCs; type: cell-based, human
# hMSCs [10] = test: Transwell migration of hMSCs to calcium phosphate matrix; type: cell-based, human; conditions: 500 nM
# Method: Human MSC migration to the site of bone injury is an important part of the repair process. […] After 8 hrs, compounds were washed off the cells and cells placed in a traditional transwell migration system. The top reservoir contained serum-free DMEM and the bottom reservoir contained DMEM plus 2% FBS. After incubation overnight, non-migrated cells were removed, migrated cells (stuck in the bottom chamber) were then fixed with 70% EtOH (40 mins) and total migrated cells were counted under a microscope after staining with 1 mg/mL of crystal violet (1 hr). hMSCs treated with compound 2 (500 nM, 8 hr) induced a 10-fold greater cell migration to the matrix than DMSO-pre-treated cells under the conditions described above. In a separate experiment, matrix that was pre-coated with compound 4 (as prepared in Example 5) was placed in the bottom chamber and migration of hMSCs from the top chamber was evaluated. Compound 4-coated matrix induced a 2-fold increase in cell migration to the matrix compared to DMSO-treated cells.
# hMSC migration was analyzed by using calcium phosphate matrix that had been pre-adsorbed with compounds 1 or 2 (500 nM, as described in Example 5) and studied in the transwell system (2% serum, described above). Compound 1 and 2 induced 3.5-fold and 1.9-fold more cell migration than non-coated ceramic. While non-limiting, these examples show the utility of the approach for increased cell migration and localization to the calcium phosphate ceramic matrix when compounds of the disclosure are present. Use of compounds of Formula II, IV, and VI to pre-coat the ceramic and also pretreat the cells is also of utility.
# hMSCs [11] = test: TLR4/TLR3 mRNA expression ratio by qPCR in hMSCs; type: cell-based, human; conditions: 500 nM, 8 days
# Source text: TLRs are modulators of hMSC differentiation. TLRs (TLR1-10) mRNA could be detected by qPCR in hMSCs. TLR4 is a biomarker for osteogenesis and TLR3 is a biomarker for adipogenesis. […]
# [12] = matrix 5 mg/mL, mean +/− SD (n = 3)
smiles,measurement,setting,value
"O=C(C=Cc1ccc(O)cc1)C=C(O)C=Cc1ccc(O)cc1 [Compound 54, 1,7-Bis(4-hydroxyphenyl)-5-hydroxy-hepta-1,4,6-trien-3-one]",activation at 0.5 µM,C2C12 cells [1]; absence of matrix,5 to 50%
same,activation at 0.5 µM,C2C12 cells [1]; presence of calcium phosphate matrix,50 to 100%
same,increase in cell proliferation (Alamar Blue Assay),"C2C12 cells [2]; 50 nM, 3 days",2 fold
same,robust mRNA up-regulation of VDR or ALP,hMSCs [3],not observed
same,solubility in water,Solubility in water,only sparingly soluble
"Cc1nc2c(-c3ccccc3)cnn2c(NCCN(C)C)c1C [Compound 2, 3-phenyl-5,6-dimethyl-7-[N-(2-N,N-dimethylaminoethyl)amino]-pyrazolo[1,5-a]pyrimidine]",EC50,Wnt transcription,> 40 nM
same,"ALP activity, combination of compound and matrix compared to compound alone or matrix alone","C2C12 cells [1]; 500 nM, 6 day incubation, tricalcium phosphate ceramic matrix 5 mg/mL (FIG. 2)",synergistic increase in ALP activity
same,"ALP activity fold-changes +/− SD, +matrix","C2C12 cells [1]; 500 nM, 6 days of culture, calcium phosphate ceramic 5 mg/mL",23.6 ± 2.5 fold
same,"ID3 mRNA expression, presence of matrix",C2C12 cells [4],1.7 fold
same,"calcium deposition, absence of matrix",C2C12 cells [5],2.0 fold
same,"calcium deposition, presence of matrix",C2C12 cells [5],2.3 fold
same,cell viability (Alamar blue),C2C12 cells [2]; 500 nM every 48 hrs for 25 days,did not show a decrease in cell viability
same,gene expression of apoptosis biomarkers (Bax and Fos),C2C12 cells [6],unable to detect gene expression of typical apoptosis biomarkers
same,"ALP functional activity, compound and matrix versus compound alone or matrix alone","hMSCs [7]; 8 and 25 day incubations, matrix 5 mg/mL (FIG. 3)",exceeded the effect of compound alone or matrix alone
same,"Alkaline Phosphatase activity, +matrix, 8 days",hMSCs [7]; [12],2.6 ± 0.3
same,"Alkaline Phosphatase activity, +matrix, 25 days",hMSCs [7]; [12],4.5 ± 0.4
same,"Alkaline Phosphatase activity, −matrix, 25 days",hMSCs [7]; mean +/− SD (n = 3),2.6 ± 0.3
same,"Alkaline Phosphatase activity, −matrix, 8 days","hMSCs [7]; mean +/− SD (n = 3), fold",1.5 ± 0.1
same,cell viability (Alamar blue),hMSCs [8],no decrease in cell viability
same,gene expression of apoptosis biomarkers (Bax and Fos),"hMSCs [9]; 500 nM to 5 μM, up to 25 days",unable to detect gene expression of typical apoptosis biomarkers
same,cytotoxicity as determined by quantification of apoptosis,hMSCs [9]; hMSCs,no cytotoxicity
same,"cell migration to the matrix, hMSCs pre-treated with compound, versus DMSO-pre-treated cells","hMSCs [10]; 8 hr pre-treatment, transwell overnight",10 fold
same,cell migration to matrix pre-adsorbed with compound versus non-coated ceramic,"hMSCs [10]; transwell, 2% serum",1.9 fold
same,"TLR4/TLR3 ratio, compound alone",hMSCs [11],modest increase
